Data on one compound can be found in article PMC12345137 (mBio, 2025).

Like-named read-outs stand apart in the source and are kept apart here. Positions of bridges follow the written chain, without caps; N, C: chain ends. Residues, ends and D or L forms follow the SMILES beside them.

Usually EC50 stands for the concentration giving half of the maximal effect. One may read the IC50 as the concentration needed to halve the response being measured.

Assay [1] relates to S. epidermidis (SE) agr-I. The conditions noted are these: fluorescence, cited from earlier work.
For the next assay, the target named is SA AgrC-III (Staphylococcus aureus, UniProt O33590). As to the kind of experiment: β-Lactamase assay, reporter strain RN10829 (P2-agrA:P3-blaZ) with pagrC-III. It is filed as cell-based. The essentials: (§1)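 S. aureus RN10829 P2-agrA:P3-blaZ reporter carrying a plasmid for the matching wild-type AgrC, grown in TSB to OD600 0.35–0.40. Cells met peptides (10 μM–10 pM) plus cognate AIP at 100 nM for 1 h at 37°C, then nitrocefin (33.3 μg/mL) turnover was read at OD486 for 10 min; IC50 from linear rates.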

The next assay addresses S. aureus agr-II (Staphylococcus aureus, UniProt O33587). As to the kind of experiment: cell-based. The essentials: (§2)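 Fluorescence of the agr-driven P3 reporter, read after 22–24 h of growth with peptide at 37°C, was corrected for medium background and divided by OD600. Activity is given relative to wells without peptide, and IC50 values were fitted by non-linear regression with variable slope.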

The next assay concerns the target S. lugdunensis agr-I (Staphylococcus lugdunensis, UniProt Q8VSW5). As to the kind of experiment: cell-based. Particulars: fluorescent reporter strain; peptides tested at 1000, 50, 2.5, 0.125 nM or in dose-response. The essentials: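 Staphylococcal agr reporters were grown with peptide for 22–24 h at 37°C. Background-corrected fluorescence per OD600 was expressed as a percentage of untreated control, and IC50 was obtained by variable-slope regression.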

The test system of assay [2] is S. epidermidis (SE) agr-III. The conditions noted are these: fluorescence; from supernatant; ref (18); cited from earlier work.
Assay [3] deals with S. aureus (SA) agr-III. Further details: method as in ref (9) (a number printed in a supplementary file, which may have a reference list of its own: not looked up in the article's list). Particulars: HPLC d-toxin; ref (9); cited from earlier work.
Assay [4] relates to S. aureus (SA) agr-III. Particulars: fluorescence; ref (10); cited from earlier work.
The next assay concerns the target SA AgrC-II (Staphylococcus aureus, UniProt O33587). Description: β-Lactamase assay, reporter strain RN10829 (P2-agrA:P3-blaZ) with pagrC-II. It is filed as cell-based. Particulars: 100 nM cognate AIP; ± SEM; -b = no inhibition recorded at the highest AIP concentration tested; -a = only partial inhibition observed; this study (curves in Fig. S20). The essentials: as §1

For assay [5], the system named is S. aureus (SA) agr-II. Further details: method as in ref (9) (a number printed in a supplementary file, which may have a reference list of its own: not looked up in the article's list). Particulars: HPLC d-toxin; ref (9); cited from earlier work.
The next assay deals with S. epidermidis agr-III (Staphylococcus epidermidis, UniProt Q8VSX2). As to the kind of experiment: cell-based. It is filed as cell-based. The essentials:
as §2

In another assay the target is S. aureus agr-IV (Staphylococcus aureus, UniProt Q309Z2). Description: cell-based. It is filed as cell-based. The conditions noted are these: fluorescent reporter strain; peptides tested at 1000, 50, 2.5, 0.125 nM or in dose-response. The essentials:
as §2

Assay [6] deals with S. aureus (SA) agr-II. The conditions noted are these: fluorescence; ref (10); cited from earlier work.
For a further assay, the system named is S. aureus (SA) agr-I. Set-up: method as in ref (9) (a number printed in a supplementary file, which may have a reference list of its own: not looked up in the article's list). The conditions noted are these: HPLC d-toxin; ref (9); cited from earlier work.
Assay [7] has as its system S. aureus (SA) agr-IV. Further details: method as in ref (9) (a number printed in a supplementary file, which may have a reference list of its own: not looked up in the article's list). Particulars: HPLC d-toxin, ref (9); cited from earlier work.
Assay [8] relates to S. aureus (SA) agr-IV. Particulars: fluorescence; ref (10); cited from earlier work.
For assay [9], the system named is S. epidermidis (SE) agr-II. The conditions noted are these: fluorescence; from supernatant; ref (18); cited from earlier work.
Another assay deals with SA AgrC-IV (Staphylococcus aureus, UniProt Q309Z2). Description: β-Lactamase assay, reporter strain RN10829 (P2-agrA:P3-blaZ) with pagrC-IV. It is filed as cell-based. Particulars: 100 nM cognate AIP; ± SEM; -b = no inhibition recorded at the highest AIP concentration tested; -a = only partial inhibition observed; this study (curves in Fig. S22). The essentials: as §1
Sequence of SA AgrC-IV (Q309Z2 entry or part of it): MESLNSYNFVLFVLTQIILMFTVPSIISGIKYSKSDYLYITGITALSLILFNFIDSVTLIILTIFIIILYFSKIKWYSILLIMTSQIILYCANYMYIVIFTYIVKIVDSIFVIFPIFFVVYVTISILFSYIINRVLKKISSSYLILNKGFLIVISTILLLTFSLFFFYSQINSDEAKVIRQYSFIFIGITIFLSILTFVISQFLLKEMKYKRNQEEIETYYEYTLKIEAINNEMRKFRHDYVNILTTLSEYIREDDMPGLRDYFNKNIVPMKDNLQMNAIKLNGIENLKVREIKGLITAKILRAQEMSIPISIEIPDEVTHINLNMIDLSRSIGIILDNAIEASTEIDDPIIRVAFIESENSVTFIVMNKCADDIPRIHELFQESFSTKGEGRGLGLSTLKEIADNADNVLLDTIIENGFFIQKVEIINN

Sequence of S. epidermidis agr-III (Q8VSX2 entry or part of it): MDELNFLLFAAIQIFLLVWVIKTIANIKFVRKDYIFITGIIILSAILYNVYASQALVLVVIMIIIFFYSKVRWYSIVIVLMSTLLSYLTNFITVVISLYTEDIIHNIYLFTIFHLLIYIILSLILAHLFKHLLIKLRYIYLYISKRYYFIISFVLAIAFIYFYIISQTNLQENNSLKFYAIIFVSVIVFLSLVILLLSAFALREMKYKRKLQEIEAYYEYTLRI
Sequence of S. lugdunensis agr-I (Q8VSW5 entry or part of it): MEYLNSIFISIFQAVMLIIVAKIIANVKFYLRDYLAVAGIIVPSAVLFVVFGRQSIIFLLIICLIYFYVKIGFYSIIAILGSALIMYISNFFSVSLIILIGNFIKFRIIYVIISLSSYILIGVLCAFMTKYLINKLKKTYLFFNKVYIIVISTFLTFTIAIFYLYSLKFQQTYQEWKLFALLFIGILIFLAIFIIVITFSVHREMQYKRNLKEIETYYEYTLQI
Sequence of SA AgrC-III (O33590 entry or part of it): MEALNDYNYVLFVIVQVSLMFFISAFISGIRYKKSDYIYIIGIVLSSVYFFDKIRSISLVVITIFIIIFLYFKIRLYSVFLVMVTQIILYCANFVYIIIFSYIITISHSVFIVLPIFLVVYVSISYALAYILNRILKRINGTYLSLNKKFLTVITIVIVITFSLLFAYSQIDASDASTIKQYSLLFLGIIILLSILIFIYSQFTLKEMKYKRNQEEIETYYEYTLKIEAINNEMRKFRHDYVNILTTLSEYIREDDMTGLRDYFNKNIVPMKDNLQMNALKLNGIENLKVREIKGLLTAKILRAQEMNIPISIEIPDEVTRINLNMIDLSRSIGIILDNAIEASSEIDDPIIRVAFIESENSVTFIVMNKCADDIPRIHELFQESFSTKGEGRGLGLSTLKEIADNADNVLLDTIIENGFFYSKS
Sequence of S. aureus agr-IV (Q309Z2 entry or part of it): as the sequence (Q309Z2 entry or part of it) above
Sequence of SA AgrC-II (O33587 entry or part of it): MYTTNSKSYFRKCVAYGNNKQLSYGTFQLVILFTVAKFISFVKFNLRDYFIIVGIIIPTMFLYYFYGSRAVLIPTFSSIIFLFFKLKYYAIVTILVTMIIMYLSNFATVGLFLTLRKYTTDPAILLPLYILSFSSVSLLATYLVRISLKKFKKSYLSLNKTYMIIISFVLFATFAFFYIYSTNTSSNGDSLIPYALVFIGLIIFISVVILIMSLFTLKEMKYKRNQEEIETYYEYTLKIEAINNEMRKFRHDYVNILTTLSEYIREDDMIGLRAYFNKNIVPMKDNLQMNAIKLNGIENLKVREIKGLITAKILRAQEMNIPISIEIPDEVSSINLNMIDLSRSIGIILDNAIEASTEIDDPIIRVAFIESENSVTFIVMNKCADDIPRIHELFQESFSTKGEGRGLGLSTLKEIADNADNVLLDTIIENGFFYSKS
Sequence of S. aureus agr-II (O33587 entry or part of it): as above

In the case of `CC(C)[C@H](NC(=O)[C@H](CO)NC(=O)[C@@H](N)CC(=O)O)C(=O)N[C@H]1CSC(=O)[C@H](Cc2ccccc2)NC(=O)[C@H](Cc2ccc(O)cc2)NC(=O)[C@H](CO)NC(=O)[C@H](C)NC1=O` [compound 5, S. epidermidis AIP-I] (H-DSVCASYF; thioester 4-C), the “effect from supernatant (% inhibition, activation or no effect), SE agr-I” value in [1] (from supernatant, ref (18)) was “activation”. In [1] (ref (11)), the EC50 is 196 nM. The IC50 against SA AgrC-III was > 1000 nM; against S. aureus agr-II it was 858 nM; in the assay on S. aureus (SA) agr-III [3], ~10 nM; in the assay with S. aureus (SA) agr-III [4], 13 nM; in the assay on S. aureus (SA) agr-II [5], 30 to 40 nM; against S. epidermidis agr-III, 8.6 ± 0.7 nM. Besides, the IC50 in the assay with S. aureus (SA) agr-II [6] was > 1000 nM; in the assay with S. aureus (SA) agr-I, ~250 nM; with S. aureus (SA) agr-IV [8] it was > 1000 nM. For the same compound, the “QS interaction in words (inhibition / activation), S. lugdunensis agr-I” value at S. lugdunensis agr-I was “no effect at 1000 nM”. Besides, the “effect from supernatant (% inhibition, activation or no effect), SE agr-III” value in assay [2] is reported as ~ 90%. In addition, on SA AgrC-II, the “IC50, SA AgrC-II, b-lactamase assay” value is on record as “-b”. Moreover, the “QS interaction in words (inhibition / activation), S. aureus agr-IV” value on S. aureus agr-IV is recorded as “no effect at 1000 nM”. Further, the “inhibition at 1000 nM, SA agr-IV” value in the assay with S. aureus (SA) agr-IV [7] is listed as “no inhibition”. In [9], the “effect from supernatant (% inhibition, activation or no effect), SE agr-II” value was ~ 90%. For the same compound, the “IC50, SA AgrC-IV, b-lactamase assay” value on SA AgrC-IV is given as “-b”.
